Data set [1] is described as follows: Cmax in human at 500 mg, po administered as single dose. It is filed as ADME, organism-based. Also noted: dose 500 mg, route oral. The conditions noted are these: in vivo.
Data set [2] in a line: Tmax in human at 500 mg, po administered as single dose. It is filed as ADME, organism-based. The note with it: in vivo.
Data set [3] can be described thus: Oral bioavailability in human at 500 mg administered as single dose. In kind it is ADME, organism-based. The note with it: in vivo.
Data set [4] can be described thus: Elimination half life in human at 500 mg, po administered as single dose. In kind it is ADME, organism-based. The conditions noted are these: in vivo.
Data set [5] deals with Homo sapiens. In words: AUC in human at 500 mg, po administered as single dose. In kind it is ADME, organism-based, Plasma. The conditions noted are these: in vivo.
The test system of data set [6] is Homo sapiens. In words: AUC in human at 150 mg, po administered as single dose. It is filed as ADME, organism-based, Plasma. The conditions noted are these: in vivo.
Data set [7] is described as follows: Cmax in human at 150 mg, po administered as single dose. The note with it: in vivo. It is filed as ADME, organism-based. Also noted: dose 150 mg, route oral.
Data set [8] is described as follows: Elimination half life in human at 150 mg, po administered as single dose. In kind it is ADME, organism-based. The note with it: in vivo.
Data set [9] is described as follows: Tmax in human at 150 mg, po administered as single dose. In kind it is ADME, organism-based. The note with it: in vivo.
Data set [10] is described as follows: Oral bioavailability in human at 150 mg administered as single dose. It is filed as ADME, organism-based. The conditions noted are these: in vivo.
Data set [11] in a line: Lipophilicity, log D at pH 8.0. It is filed as physicochemical. The conditions noted are these: buffer.

Structures are written as SMILES.

Take `CC[C@H]1OC(=O)[C@H](C)[C@@H](O[C@H]2C[C@](C)(OC)[C@H](O)[C@@H](C)O2)[C@H](C)[C@@H](O[C@@H]2O[C@@H](C)C[C@@H](N(C)C)[C@@H]2O)[C@](C)(O)C[C@@H](C)C(=O)[C@H](C)[C@@H](O)[C@]1(C)O` [ERYTHROMYCIN A DIHYDRATE]: the Cmax in data set [1] is 1900 ng/mL. The Tmax in data set [2] was determined as 1 h. This compound gave a bioavailability in [3] of 18%. In addition, the half-life in data set [4] was 90 min. The AUC in the data set on Homo sapiens [5] worked out at 5.8 mg·h/L.

`CC[C@H]1OC(=O)[C@H](C)[C@@H](O[C@H]2C[C@@](C)(OC)[C@@H](O)[C@H](C)O2)[C@H](C)[C@@H](O[C@@H]2O[C@H](C)C[C@H](N(C)C)[C@H]2O)[C@](C)(O)C[C@@H](C)/C(=N\OCOCCOC)[C@H](C)[C@@H](O)[C@]1(C)O` [ROXITHROMYCIN]: the AUC in the data set on Homo sapiens [6] came out at 81 mg·h/L. Besides, the Cmax in [7] turned out to be 7900 ng/mL. In data set [8], this compound had a half-life of 630 min. Further, the Tmax in [9] turned out to be 2.2 h. In [10], this compound had a bioavailability of 72%. For the same compound, the logD in data set [11] is 2.5.

In data set [1], `CC[C@H]1OC(=O)[C@H](C)[C@@H](O[C@H]2C[C@@](C)(OC)[C@@H](O)[C@H](C)O2)[C@H](C)[C@@H](O[C@@H]2O[C@H](C)C[C@H](N(C)C)[C@H]2O)[C@](C)(OC)C[C@@H](C)C(=O)[C@H](C)[C@@H](O)[C@]1(C)O` [CLARITHROMYCIN] came in with a Cmax of 2410 ng/mL. For the same compound, the Tmax in [2] came out at 2 h. Also, the bioavailability in data set [3] came out at 55%. This compound had a half-life in [4] of 294 min. Further, the AUC in the data set with Homo sapiens [5] was 18.9 mg·h/L. In addition, in data set [11], the logD stood at 3.9.

The term Cmax denotes the maximum level reached in the sampled fluid or tissue. In general, Tmax refers to the time from dosing to the highest level. For orientation: bioavailability means dose-corrected exposure relative to a reference, in per cent. The low end stands for little systemic uptake, the high end for much systemic uptake. What is called half-life is the time needed for the level to fall by half in the phase considered. Lower therefore signals rapid decline. The term AUC denotes the area under the concentration-time curve, a measure of exposure. A higher AUC goes with high exposure. The term logD denotes lipophilicity at a set pH, counting ionised and neutral species. A lower logD goes with lower lipophilicity.

The values above are taken from ChEMBL document CHEMBL1143870, “A new insight into solid-state conformation of macrolide antibiotics” (Bioorg Med Chem, 2008).
